From patent publication US20080026084A1, “Method and composition for management of weight and blood sugar” (PhytoMyco Research Corporation, priority 2006, published 2008)

How the values were obtained:
3T3-L1 cells = assay: assays of this invention (lipolysis, inhibition of adipocyte differentiation, de-differentiation, leptin secretion); assay type: cell-based, mouse
Text: Method i): Oil Red O staining which stains fat droplets in fat cells and thereby gives a directly related indication of the level of adipogenesis as a function of the amount of staining of fat droplets.
Method ii): GPDH or […] is a key enzyme involved in the pathway of triglyceride synthesis in the glycolytic pathway. Adipocytes express highlevels of this enzyme. Therefore, a reduction in GPDH levels is indicative of inhibition of adipogenesis (prevention of fat accumulation in cells).
Method iii): Assay to observe de-differentiation of adipocytes to preadipocytes can be used to detect compounds and mixtures of compounds that are capable of breaking down existing stores of body fat. This assay identifies compounds and mixtures of compounds than induce the […] of adipocytes to preadipocytes and is quantitatively assessed by developing a color response using Oil Red O staining or by measuring GPDH levels as in methods i) and ii), respectively. Such compounds and mixtures of compounds as extracts of plants can have a direct effect on reducing weight because they cause fat cells to become non-fat cells (preadipocytes).
Method iv) Leptin Secretion assay can be used to determine the presence of leptin which is a product of the Ob gene. It is a hormone secreted by mature adipocytes that plays a role in regulating body fat storage. High levels of leptin circulating in the blood indicate hormonally that energy stores are high, and therefore mitigate the need for further food intake. Compounds or mixtures of compounds of this invention that increase leptin secretion can be administered orally to an overweight or obese person to reduce appetite in that person, and therefore to reduce food intake by that person.
In this assay, pre-adipocyte cells are seeded in 96-well plates and are induced to convert to adipocytes over the course of a 10-15 day treatment with […] reagents. After cells have converted to adipocytes, the cells are starved, and then subsequently treated with or exposed to test compounds or mixtures of compounds or extracts of plants or fractionated extracts of plants. The adipocytes are treated with test compounds in the presence of a surrounding cell medium. Over the course of 1 to 3 hours after exposure to the test compounds or mixture of compounds, the amount of glycerol present in the cell medium is measured. Glycerol and fatty acids are hydrolysis products of triglycerides, and glycerol is released from cells after enzymatic hydrolysis or breakdown of lipids. Results are expressed as a percentage of the amount of glycerol present detected in a reference assay comprising an untreated control. Untreated controls are cells that are treated with vehicle only (such as 100% DMSO).
Inhibition of adipocyte differentiation is assayed by measuring the levels of the enzyme glycerol-3-phosphate dehydrogenase (GPDH). GPDH is involved in the pathway of triglyceride synthesis in the glycolytic pathway. Colorimetric assays can be used to screen for compounds and mixtures of compounds than inhibit the differentiation of preadipocytes to adipocytes. Oil Red O is a colorimetric assay that can be used to stain lipids in adipocytes.
In this assay pre-adipocyte cells require 10 to 15 days to differentiate into adipocytes. […] After cells have undergone the 10-15 days required to differentiate, cells are assessed for GPDH activity.
Results are expressed as a percentage of the untreated control average. […]

[1] = in vivo; cited from earlier work

Molecule	activity in the assays of this invention (3T3-L1 cells)	decrease of the amount of fat absorbed from the diet [1]
CC(=O)OC(C)(C)/C=C/C(=O)[C@](C)(O)[C@H]1[C@H](O)C[C@@]2(C)[C@@H]3CC=C4[C@H](C[C@H](O)C(=O)C4(C)C)[C@]3(C)C(=O)C[C@]12C [cucurbitacin B]	active	
Cephalandrine A	active	
CCCCCCCCCCC[C@@H](C[C@@H]1OC(=O)[C@H]1CCCCCC)OC(=O)[C@H](CC(C)C)NC=O [Orlistat]		about 30%
Cephalandrine B	active	
Cephalandrol	active	
CC(C)(O)/C=C/C(=O)[C@](C)(O)[C@H]1[C@H](O)C[C@@]2(C)[C@@H]3CC=C4[C@@H](C[C@H](O)C(=O)C4(C)C)[C@]3(C)C(=O)C[C@]12C [cucurbitacin D]	active	
